# Test results reported in patent US20090233957A1, “(-)-BELOXEPIN AND METHODS FOR ITS SYNTHESIS AND USE” (priority 2008, published 2009).
# Assays:
# [1] = molecular target: T1, cloned human NE transporter (hNET) (Homo sapiens, UniProt P23975); experiment: NE transporter binding assay, [3H]nisoxetine; conditions: membranes of CHO cells expressing hNET; read-out: NET Ki
# T1 construct: expressed in transfected cells; host or cells: CHO cells
# Method: Protocols. For the NE transporter binding assay, [^3H]nisoxetine (1.0 nM) was incubated with various concentrations of test compounds for 2 hours at 4° C. with membranes prepared from Chinese hamster ovary cells (CHO) cells heterologously expressing the cloned human NE transporter (hNET). Bound radioactivity was determined by scintillation spectroscopy.
# [2] = molecular target: T2, cloned human 5HT2A receptor (Homo sapiens, UniProt P28223); experiment: 5HT2A receptor binding assay, [3H]ketanserin; conditions: HEK-293 membranes
# T2 construct: expressed in transfected cells; host or cells: HEK-293 cells
# T2 sequence (P28223 whole entry): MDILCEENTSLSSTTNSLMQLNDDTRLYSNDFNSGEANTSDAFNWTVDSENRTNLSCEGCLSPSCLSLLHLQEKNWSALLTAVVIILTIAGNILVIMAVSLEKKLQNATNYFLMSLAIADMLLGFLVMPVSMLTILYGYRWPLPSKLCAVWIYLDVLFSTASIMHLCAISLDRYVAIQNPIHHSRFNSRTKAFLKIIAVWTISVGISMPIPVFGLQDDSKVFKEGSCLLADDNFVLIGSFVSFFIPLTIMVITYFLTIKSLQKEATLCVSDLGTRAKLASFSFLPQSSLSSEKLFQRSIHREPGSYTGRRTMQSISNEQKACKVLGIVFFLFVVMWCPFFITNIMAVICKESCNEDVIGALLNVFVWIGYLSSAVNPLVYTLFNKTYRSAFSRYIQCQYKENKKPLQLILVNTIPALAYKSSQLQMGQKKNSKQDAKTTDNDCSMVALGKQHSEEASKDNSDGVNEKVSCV
# Method: For the 5HT2A receptor binding assay, [^3H]ketanserin (0.5 nM) was incubated for 60 min at 22° C. with membranes prepared from HEK-293 cells heterologously expressing the cloned human 5-HT2A receptor according to the method of Bonhaus et al., 1995, Brit. J. Pharmacol. 115:622-628. Various concentrations of test compound were added and bound radioactivity was determined by scintillation counting. Non-specific binding was determined in the presence of 1.0 μM unlabeled ketanserin. The Ki value for the test compound was determined using standard methods.
# [3] = molecular target: T2, cloned human 5HT2A receptor; experiment: 5HT2A functional assay, intracellular Ca2+ in HEK-293 cells; format: cell-based
# Method: (§1) Agonist effects at the 5HT2A receptor were assessed by incubation at 22° C. of a series of concentrations of test compound with intact HEK-293 cells heterologously expressing the cloned human 5HT2A receptor and measuring intracellular [Ca^2+] by fluorimetry according to the method of Jerman et al., 2001, Eur. J. Pharmacol. 414:23-30). Antagonist effects were assessed by the ability of a series of concentrations of test compound to block the increase in intracellular [Ca^2+] that occurred in the presence of 3.0 nM serotonin under the same conditions. EC50 and IC50 values were determined using standard methods.
# [4] = molecular target: T3, cloned human 5HT2B receptor (Homo sapiens, UniProt P41595); experiment: 5HT2B receptor binding assay, [125I]DOI; conditions: CHO membranes
# T3 construct: expressed in transfected cells; host or cells: CHO cells
# T3 sequence (P41595 whole entry): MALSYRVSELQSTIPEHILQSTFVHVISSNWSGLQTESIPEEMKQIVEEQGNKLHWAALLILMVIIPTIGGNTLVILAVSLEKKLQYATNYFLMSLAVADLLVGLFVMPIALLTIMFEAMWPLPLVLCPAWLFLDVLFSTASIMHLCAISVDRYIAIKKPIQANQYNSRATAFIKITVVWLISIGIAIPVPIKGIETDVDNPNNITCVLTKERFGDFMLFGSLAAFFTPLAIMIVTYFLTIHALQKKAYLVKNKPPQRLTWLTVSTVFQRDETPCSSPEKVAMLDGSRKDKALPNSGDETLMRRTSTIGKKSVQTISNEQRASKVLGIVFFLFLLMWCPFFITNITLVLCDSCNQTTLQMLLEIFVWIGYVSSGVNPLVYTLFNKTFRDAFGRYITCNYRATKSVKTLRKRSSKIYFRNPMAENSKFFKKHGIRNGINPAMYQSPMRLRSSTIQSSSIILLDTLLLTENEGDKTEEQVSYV
# Method: For the 5HT2B receptor binding assay, [^125I](±)[…] (DOI) (0.2 nM) was incubated for 15 min at 37° C. with membranes prepared from Chinese hamster ovary cells heterologously expressing the cloned human 5HT2B receptor according to the method of Choi et al., 1994, FEBS Lett 352:393-399. Various concentrations of test compound were added and bound radioactivity was determined by scintillation counting. Non-specific binding was determined in the presence of 1.0 μM unlabeled DOI. The Ki value for the test compound was determined using standard methods.
# [5] = molecular target: T3, cloned human 5HT2B receptor; experiment: 5HT2B functional assay, intracellular Ca2+ in CHO cells; format: cell-based
# Method: as §1, with “5HT2B” for “5HT2A”, “CHO” for “HEK-293”, “Porter” for “Jerman”, “1991, Brit.” for “2001, Eur.”, “128:13-20.” for “414:23-30).”, “0.3” for “3.0”
# [6] = molecular target: T4, cloned human 5HT2C receptor (Homo sapiens, UniProt P28335); experiment: 5HT2C receptor binding assay, [3H]mesulergine; conditions: CHO membranes
# T4 construct: expressed in transfected cells; host or cells: CHO cells
# T4 sequence (P28335 33-458): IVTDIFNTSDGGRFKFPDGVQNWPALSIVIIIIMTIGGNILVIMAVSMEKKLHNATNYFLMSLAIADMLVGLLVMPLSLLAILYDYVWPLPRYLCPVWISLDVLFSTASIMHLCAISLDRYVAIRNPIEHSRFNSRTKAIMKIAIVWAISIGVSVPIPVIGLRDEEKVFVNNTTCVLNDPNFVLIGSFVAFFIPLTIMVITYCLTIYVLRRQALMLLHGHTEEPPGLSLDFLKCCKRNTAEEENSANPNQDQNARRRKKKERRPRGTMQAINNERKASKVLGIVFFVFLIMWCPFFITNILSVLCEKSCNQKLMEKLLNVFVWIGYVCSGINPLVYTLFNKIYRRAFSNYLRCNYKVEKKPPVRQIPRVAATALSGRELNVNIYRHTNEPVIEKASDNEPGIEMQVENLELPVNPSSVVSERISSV
# Method: For the 5HT2C receptor binding assay, [^3H]mesulergine (1.0 nM) was incubated for 60 min at 37° C. with membranes prepared from Chinese hamster ovary cells heterologously expressing the cloned human 5-HT2C receptor according to the method of Stam et al., 1994, Eur. J. Pharmacol. 269:339-348. Various concentrations of test compound were added and bound radioactivity was determined by scintillation counting. Non-specific binding was determined in the presence of 10 μM RS102221. The Ki value for the test compound was determined using standard methods.
# [7] = molecular target: T4, cloned human 5HT2C receptor; experiment: 5HT2C functional assay, intracellular Ca2+ in CHO cells; format: cell-based
# Method: as §1, with “5HT2C” for “5HT2A”, “CHO” for “HEK-293”, “414:23-30.” for “414:23-30).”
# human recombinant CYP2D6 = molecular target: T5, human recombinant CYP2D6 (Homo sapiens, UniProt P10635); experiment: CYP2D6 inhibition, MAMC substrate; format: in vitro ADME
# T5 construct: purchased BD Bioscience
# T5 sequence (P10635 whole entry): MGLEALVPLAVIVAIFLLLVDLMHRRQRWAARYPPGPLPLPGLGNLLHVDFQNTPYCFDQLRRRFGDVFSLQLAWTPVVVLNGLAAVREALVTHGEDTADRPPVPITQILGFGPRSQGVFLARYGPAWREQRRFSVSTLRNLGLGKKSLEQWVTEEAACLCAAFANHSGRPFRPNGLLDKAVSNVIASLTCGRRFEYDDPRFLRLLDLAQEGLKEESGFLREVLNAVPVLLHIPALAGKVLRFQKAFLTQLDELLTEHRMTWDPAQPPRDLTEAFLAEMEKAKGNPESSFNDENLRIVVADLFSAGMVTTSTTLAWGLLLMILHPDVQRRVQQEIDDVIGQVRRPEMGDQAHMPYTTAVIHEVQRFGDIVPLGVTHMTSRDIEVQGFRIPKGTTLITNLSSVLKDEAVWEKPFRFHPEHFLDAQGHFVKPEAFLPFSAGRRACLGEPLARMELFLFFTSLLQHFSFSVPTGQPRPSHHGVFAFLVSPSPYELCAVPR
# Method: Protocol. […] The source of the enzyme was microsomes containing human recombinant CYP2D6 obtained from BD Bioscience. Conversion of MAMC to 7-hydroxy-4-(aminomethyl)coumarin was measured using a PerkinElmer Fusion with a 390 nm excitation filter and a 460 nm emission filter.
# [8] = tested on: noradrenaline reuptake in synaptosomes from rat and primate brain; conditions: published reports; cited from earlier work
# 5HT2C receptor = molecular target: T6, 5HT2C receptor (Homo sapiens, UniProt P28335); conditions: published report; cited from earlier work
# T6 sequence (P28335 33-458): T4 sequence (P28335 33-458)
# [9] = tested on: noradrenergic, histaminergic and cholinergic receptors; conditions: published report; cited from earlier work
# [10] = tested on: animal models of depression; conditions: preclinical; cited from earlier work
# human volunteers = conditions: 25-400 mg, cited from earlier work
# [11] = single doses of 10 to 500 mg; cited from earlier work
# [12] = cited from earlier work
# [13] = tested on: patients hospitalized for depression; conditions: phase IIA; cited from earlier work
# major depression = conditions: human, in vivo; cited from earlier work
# [14] = in vivo; cited from earlier work
# [15] = antagonist mode, vs 3.0 nM serotonin
# T1 sequence (P23975 whole entry): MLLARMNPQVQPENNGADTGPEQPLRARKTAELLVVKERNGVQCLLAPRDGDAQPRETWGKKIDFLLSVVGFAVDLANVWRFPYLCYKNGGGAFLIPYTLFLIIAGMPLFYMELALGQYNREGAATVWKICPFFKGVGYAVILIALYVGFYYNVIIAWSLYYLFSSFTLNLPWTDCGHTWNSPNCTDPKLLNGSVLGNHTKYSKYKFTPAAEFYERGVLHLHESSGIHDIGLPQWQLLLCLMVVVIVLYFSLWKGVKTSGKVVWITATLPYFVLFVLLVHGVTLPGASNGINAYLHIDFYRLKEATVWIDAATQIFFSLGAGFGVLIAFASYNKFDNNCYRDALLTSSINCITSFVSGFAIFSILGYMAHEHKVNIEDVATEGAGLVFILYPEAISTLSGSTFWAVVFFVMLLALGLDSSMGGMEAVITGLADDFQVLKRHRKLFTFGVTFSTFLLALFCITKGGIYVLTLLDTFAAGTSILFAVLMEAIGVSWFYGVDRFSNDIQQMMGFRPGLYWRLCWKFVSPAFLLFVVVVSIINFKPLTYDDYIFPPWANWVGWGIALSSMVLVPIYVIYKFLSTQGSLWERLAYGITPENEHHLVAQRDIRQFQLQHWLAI
structure (smiles),measurement,setting,value
"Cc1cccc2c1Oc1ccccc1C1(O)CCN(C)CC21 (racemic) [(±)-beloxepin, cis-1,2,3,4,4a,13b-hexahydro-2,10-dimethyldiben-[2,3:6,7]oxepino[4,5c]pyridine-4a-ol]]",Ki,[1],700 nM
same,Ki,[2],440 nM
same,5HT2A functional activity type,[3],antagonist
same,IC50,[3]; [15],5200 nM
same,Ki,[4],1000 nM
same,5HT2B functional activity type,[5],antagonist
same,IC50,"[5]; antagonist mode, vs 0.3 nM serotonin",> 10000 nM
same,Ki,[6],830 nM
same,5HT2C functional activity type,[7],antagonist
same,IC50,[7]; [15],> 10000 nM
same,IC50,human recombinant CYP2D6,536 nM
same,less affinity for other monoamine carriers (serotonin and dopamine transporters) than for noradrenaline reuptake,[8],greater than 100 fold
same,affinity for the 5HT2C receptor,5HT2C receptor,modest affinity
same,"affinity for noradrenergic, histaminergic and cholinergic receptors",[9],no or very weak affinity
same,antidepressant properties,[10],"offsetting acquired immobility behavior, reserpine-induced hypothermia, and conditioned avoidance behavior"
same,side effects,[10],"did not cause sedation, motor impairment or other untoward side effects"
same,effect on REM sleep,human volunteers; acutely and sub-chronically,dose-dependently prolonged REM latency
same,side effects,human volunteers,No sedation or other side effects were observed
same,tmax,[11],one to four
same,"tmax, steady state","[12]; doses of 50 to 800 mg, healthy subjects",1.17 h
same,adverse effects,"[12]; healthy volunteers, up to 800 mg/day",No important adverse effects were observed
same,fraction of patients with a moderate to good response (HAMD score reduction),[13],⅔
same,efficacy in major depression,major depression,insufficient efficacy
same,logBB,[14],0.82
